The source of these data is patent US7662820B2, “Dipterinyl calcium pentahydrate (DCP) and therapeutic methods based thereon” (SanRX Pharmaceuticals, Inc., priority 2006, dated 2010).

For data set [1] the following is noted: nude mice treated with DCP, FIG. 3.
Protocol: Twenty-nine athymic nude were each injected subcutaneously with 10×10^6 MDA-MB-231 cancer cells into the right flank. When tumors reached 3-5 mm in size, the mice were divided into five treatment groups of five each and a control group of four mice. Four of these with outlying tumor sizes or non-tumor takes were excluded shortly after treatment began: one each from the (1:4 mol:mol) calcium pterin group, the (1:2 mol:mol) calcium pterin group, the DCP (69 mg/kg/day) group, and one from the control group. Experimental groups were treated by oral gavage once daily with the indicated test suspensions or solutions. Control groups were untreated. Daily dosing was for 7 days per week. Animals were restrained but not anesthetized for oral dosing. Tumors were measured twice weekly with calipers and body weights taken twice weekly on the day of tumor measurements. Blood was collected from all animals via cardiac puncture at termination (after 70 to 98 days of treatment) and processed to EDTA plasma for analysis.
The subject of data set [2] is MDA-MB-231 human tumor xenographs. Description: Antitumor efficacy in nude mice with MDA-MB-231 human tumor xenographs. It is filed as in vivo, athymic nude (nu/nu) mice. The note with it: for anti tumor efficacy compared with original CaPterin, (1:4 mol:mol) calcium pterin / inhibition of MDA-MB-231 xenograph growth (Relative Tumor Volume): oral gavage once daily, FIG. 1; for inhibition of MDA-MB-231 xenograph growth (Relative Tumor Volume): nude mice, versus untreated control. The source says:
FIGS. 1A and 1B (with SEMs): Twenty-nine athymic nude (nu/nu) female mice, ages 3-4 weeks, were inoculated with 10×10^6 MDA-MB-231 cancer cells subcutaneously into the right flank of each mouse. […] Four mice were assigned as controls. Four mice with outlying tumor sizes or non-tumor takes were subsequently excluded. […] The control group was untreated.
Cell Line Propagation and Inoculation: The MDA-MB-231 human breast tumor cell lines were supplied by SRI International (Menlo Park, Calif.) and propagated using standard in vitro cell expansion methods. Briefly, cells were grown in L-15 media from Gibco (Cat. No. 11415-064) supplemented with 2 mM L-Glutamine and 10% Fetal Bovine Serum (FBS). The cells were cultured in an incubator with 5% C02, 37.50C, and 80% humidity. Cells were harvested with 0.25% (w/v) Trypsin-0.03% (w/v) EDTA solution. Cells were prepared for injection by standard methods to appropriate concentrations. Animals were temporarily restrained but not anesthetized for the inoculation of the tumor cells. Animals were subcutaneously injected with the tumor cells in a 100-200 μl volume.
Control groups were untreated. Daily dosing was for 7 days per week. Animals were restrained but not anesthetized for oral dosing.
Tumor Growth Rate Measurements: Each animal was individually tracked for tumor growth by external caliper measurements of protruding tumor. Primary tumor sizes were measured using calipers and an approximate tumor volume calculated using the formula 1/2 (a×b2), where b was the smaller of two perpendicular diameters.
For each group, the mean and standard error of the mean (SEM) of the ratio V/Vo, Relative Tumor Volume (RTV), were plotted as a function of treatment time after inoculation. V0 was the tumor volume at Day 0, when treatment began. Time course statistical analyses based upon repeated measures ANOVA models were used (StatView SE+Graphics, v 1.03).

Data set [3] concerns tumor. The note with it: in vivo; cited from earlier work.
The test system of data set [4] is sarcoma. The note with it: mice; cited from earlier work.

Regarding `Nc1nc([O-])c2nccnc2n1.Nc1nc([O-])c2nccnc2n1.[Ca+2]` [DCP, dipterinyl calcium pentahydrate], in data set [1], the weight loss entry is on record as “no significant weight loss”. Moreover, the “anti tumor efficacy compared with original CaPterin, (1:4 mol:mol) calcium pterin” value in data set [2] (DCP at 23 mg/kg/day) is “significantly greater anti tumor efficacy”; in data set [2] (DCP at 69 mg/kg/day), “comparable efficacy”. Further, the “inhibition of MDA-MB-231 xenograph growth (Relative Tumor Volume)” value in data set [2] is given as “significantly inhibit”. Further, the “inhibition of MDA-MB-231 xenograph tumors compared with (1:4 mol:mol) calcium pterin [CaPterin]” value in data set [2] (oral, dose not stated (conclusion)) was “significantly greater”.
With `Nc1nc2[nH]c(=O)cnc2c(=O)[nH]1` [Isoxanthopterin], in data set [3], the tumor growth result is given as “inhibit tumor growth”.
In the case of `Nc1nc(=O)c2[nH]c(=O)cnc2[nH]1` [Xanthopterin], the sarcoma growth result in data set [4] is on record as “inhibit sarcoma growth”.
Regarding `O.O.[Ca+2].[Cl-].[Cl-]` [calcium chloride dihydrate, reference compound], in data set [2], the “inhibition of MDA-MB-231 xenograph growth (Relative Tumor Volume)” value is given as “significantly inhibit”.
